In patent US20260191196A1, “COMPOSITIONS AND METHODS FOR IMPROVING SOIL MICROBIAL POPULATIONS” (SYNGENTA CROP PROTECTION AG, priority 2022, published 2026):

How the values were obtained:
[1] = test system: bacteria (16S) and fungi (ITS) communities; assay: Potato field trial: soil microbiome community and biodiversity; format: in vivo, potato (Solanum tuberculosum L.); conditions: locations A and B, T0-T3
Method: In this experiment, assuming that biodiversity can be measured by the taxonomic richness and abundance of each taxon, the differences between treatments are determined and their effect on populations and beneficial species over time is verified. This leads to testing two hypotheses. Firstly, there is an impact of cyclobutrifluram applications on microbial diversity. Secondly, the use of cyclobutrifluram improves beneficial microbial diversity over time. These hypotheses were tested in two potato farms in the USA.
The experiment was carried out in two potato (Solanum tuberculosum L.) fields located in two test locations in Louisiana, USA, described as locations A and B in Table 2. In each experimental field, three products were tested in an area of 10 m^2 (Table 3) and three replicates per product were established by complete block randomized. To evaluate the effects on the microbiome a “Check” plot (untreated) was established. In addition, fluopyram was employed as a comparative example. Fluopyram is a widely used fungicide and nematicide, and represents the industry standard herein.
To analyse the microbial biodiversity, three soil samples were taken per treatment and each sample consisted of soil collected from three different points within the plots. In this way, the effect of soil variability was minimized, since there were nine samples per treatment. […]
As set out above, to detect microbial community modifications in the soil microbiome associated with the cyclobutrifluram treatment, PCR amplification and successive high-throughput sequencing of bacterial and fungal taxonomical marker genes (the small-subunit ribosomal RNA gene (16S) and the ribosomal internal transcribed spacers (ITS) respectively) were performed on plant-associated soil samples. An exploratory data analysis was conducted to describe the microbial biodiversity and the behaviour of the percentage of the abundance of species under the evaluated factors. […]

soil bacterial community = assay: Plant associated soil microbiome: bacterial community by 16S rRNA gene amplicon sequencing; format: in vivo, tomato plants
Method: To detect microbial community modifications in the soil microbiome associated with the cyclobutrifluram treatment against root knot nematodes, PCR amplification and successive high-throughput sequencing of bacterial and fungal taxonomical marker genes (the small-subunit ribosomal RNA gene (16S) and the ribosomal internal transcribed spacers (ITS) respectively) were performed on plant-associated soil samples.
Bacterial ASVs were detected by 16SrRNA gene amplicon sequencing with taxonomy assignment at ASV level. The relative abundance in Control and Cyclobutrifluram treated samples and, when statistically significative (Deseq2, p=0.1), the relative abundance variation is reported in Table 1a, reporting bacterial ASVs detected by 16S rRNA gene amplicon sequencing with taxonomy assignment at ASV level. Here is reported the relative abundance in Control and Cyclobutrifluram treated samples and, when statistically significative (Deseq2, p=0.1), the relative abundance variation. Shown are the bacteria with an abundance of above 0.01%.

[2] = test system: arbuscular mycorrhizae fungi; assay: Mycorrhization in soybean roots after seed treatment; format: in vivo
Method: Soybeans of variety Toliman were treated with 0.15 mg ai/seed of cyclobutrifluram and analogues, and planted in 1.5 L pots of 0-3 mm sieved soil. The seeds were inoculated with Bradyrhizobium japonicum using a commercially available product for soybeans.
In a first series, for each active ingredient tested, 15 replicate pots were sowed. In each pot, 3 seeds were sowed. After germination, 2 seedling was removed from each pot to a final number of 1 plant per pot. Each pot was inoculated with a small amount of a mycorrhizal inoculant (Blend A, commercially available from Symbiom, Czech Republic). The plants were grown in a greenhouse for 81 days under the following conditions: Humidity at 45-64%, Temperature of 22° C. to 24° C., in a 16/8 hour day/night cycle. In a further test series, Soybeans seeds treated as outlined above were then planted in 1 Lpots of 0-3 mm sieved soil. For each active ingredient, 8 replicate pots were sowed, whereby in each pot, 3 seeds were sowed. After germination, 2 seedlings were removed from each pot to a final number of 1 plant per pot.
The plants were then grown in a growth chamber for 42 days with the following conditions: Temperature of 20° C. and with a 12/12 hour day/night.
After harvest, the percent mycorrhization was quantified using the methods of McGonigle et al. (T. P. McGONIGLE, M. H. MILLER and D. G. EVANS et al., “A new method which gives an objective measure of colonization of roots by vesicular-arbuscular mycorrhizal fungi”. New Phytol. Vol. 115 (3): 495-501.).

[3] = Cyclobutrifluram treated plant-associated soil

## O=C(N[C@@H]1CC[C@@H]1c1ccc(Cl)cc1Cl)c1cccnc1C(F)(F)F (racemic) [Cyclobutrifluram, cyclobutrifluram]
[1]
  changes into the soil microbiome community: did not induce negative changes
Soil bacterial community; 1st Acidobacteria-6 ASV (r9), Deseq2, p=0.1
  relative abundance variation vs Control, Acidobacteria-6 (ASV, Class): +0.050%
Soil bacterial community; 2nd Acidobacteria-6 ASV (r16), Deseq2, p=0.1
  relative abundance variation vs Control, Acidobacteria-6 (ASV, Class): +0.051%
Soil bacterial community; 3rd Acidobacteria-6 ASV (r18), Deseq2, p=0.1
  relative abundance variation vs Control, Acidobacteria-6 (ASV, Class): +0.027%
Soil bacterial community; 4th Acidobacteria-6 ASV (r19), Deseq2, p=0.1
  relative abundance variation vs Control, Acidobacteria-6 (ASV, Class): +0.028%
Soil bacterial community; 5th Acidobacteria-6 ASV (r22), Deseq2, p=0.1
  relative abundance variation vs Control, Acidobacteria-6 (ASV, Class): +0.071%
Soil bacterial community; 6th Acidobacteria-6 ASV (r24), Deseq2, p=0.1
  relative abundance variation vs Control, Acidobacteria-6 (ASV, Class): +0.030%
Soil bacterial community; 16S rRNA gene amplicon sequencing
  modifications in the bacterial diversity: no modifications
Soil bacterial community; [3]
  Relative abundance, Gaiella (ASV, Genus): 0.065%
  Relative abundance, Gemmatimonadetes (ASV, Class): 0.071%
  Relative abundance, Microlunatus (ASV, Genus): 0.032%
  Relative abundance, Myxococcales (ASV, Order): 0.033%
  Relative abundance, PK29 (ASV, Order): 0.021%
  Relative abundance, Planctomyces (ASV, Genus): 0.016%
  Relative abundance, Rhizobiales (ASV, Order): 0.025%
  Relative abundance, Streptosporangiaceae (ASV, Family): 0.020%
Soil bacterial community; Cyclobutrifluram treated plant-associated soil, 1st Acidobacteria-6 ASV (r9)
  Relative abundance, Acidobacteria-6 (ASV, Class): 0.050%
Soil bacterial community; Cyclobutrifluram treated plant-associated soil, 2nd Acidobacteria-6 ASV (r16)
  Relative abundance, Acidobacteria-6 (ASV, Class): 0.051%
Soil bacterial community; Cyclobutrifluram treated plant-associated soil, 3rd Acidobacteria-6 ASV (r18)
  Relative abundance, Acidobacteria-6 (ASV, Class): 0.027%
Soil bacterial community; Cyclobutrifluram treated plant-associated soil, 4th Acidobacteria-6 ASV (r19)
  Relative abundance, Acidobacteria-6 (ASV, Class): 0.028%
Soil bacterial community; Cyclobutrifluram treated plant-associated soil, 5th Acidobacteria-6 ASV (r22)
  Relative abundance, Acidobacteria-6 (ASV, Class): 0.084%
Soil bacterial community; Cyclobutrifluram treated plant-associated soil, 6th Acidobacteria-6 ASV (r24)
  Relative abundance, Acidobacteria-6 (ASV, Class): 0.030%
Soil bacterial community; Deseq2, p=0.1
  relative abundance variation vs Control, Gaiella (ASV, Genus): +0.065%
  relative abundance variation vs Control, Gemmatimonadetes (ASV, Class): +0.071%
  relative abundance variation vs Control, Microlunatus (ASV, Genus): +0.032%
  relative abundance variation vs Control, Myxococcales (ASV, Order): +0.033%
  relative abundance variation vs Control, PK29 (ASV, Order): +0.021%
  relative abundance variation vs Control, Planctomyces (ASV, Genus): +0.016%
  relative abundance variation vs Control, Rhizobiales (ASV, Order): +0.025%
  relative abundance variation vs Control, Streptosporangiaceae (ASV, Family): +0.020%
Soil bacterial community; differential abundance analysis, Cyclobutrifluram treatment
  modifications in the bacterial community at genus level: no significant modifications
Soil bacterial community; following cyclobutrifluram treatment
  relative abundance of the 14 ASVs found to be significantly changing: < 0.1%
[2]; Glycine max, soybean variety Toliman, seed treatment 0.15 mg ai/seed, mycorrhizal inoculant Blend A, relative to control, read-out: [%] arbuscular mycorrhizae fungi colonization vs. control.
  response vs control in vivo at 0.15 mg/seed: 115%
[2]; compared to control
  level of mycorrhizal colonization in soybean roots (in words): higher colonization
